From patent US20260013505A1, “Herbicidal Compositions Comprising Diclosulam” (BASF SE, priority 2024, published 2026)

Assays:
Format in all cases: in vivo
Amaranthus viridis = assay: Example 2 post-emergence field trial, AMAVI; conditions: 21 DAT, growth stage 16-18
Method: (§1) In the examples below, using the method of S. R. Colby (1967) “Calculating synergistic and antagonistic responses of herbicide combinations”, Weeds 15, p. 22ff., the value E, which is expected if the activity of the individual active compounds is only additive, was calculated:
(§2) [formula] • where • X=percent activity using active herbicide A at an application rate a; • Y=percent activity using active herbicide B (e.g. diclosulam) at an application rate b; • E=expected activity (in %) by A+B at application rates a+b.
(§3) If the value found experimentally is higher than the value E calculated according to Colby, a synergistic effect is present.
(§4) On field test sites, natural weed infestation or seeded weeds were treated post-emergence of the weeds.
(§5) In the field trials, the weeds were treated as indicated below.
(§6) In the following experiments, the herbicidal activity for the individual herbicidal compositions (solo and mixture applications) was assessed at the indicated days after treatment (DAT). The assessments for the damage on undesired weeds caused by the composition was carried out using a scale from 0 to 100%, compared to the untreated control plants. Here, 0 means no damage and 100 means complete destruction of the plants. […]

Ipomoea triloba = assay: Example 1 post-emergence field trial, IPOTR; conditions: 14 DAT, growth stage 35
Method: as §1, §2, §3, §4, §5, §6

Cenchrus echinatus = assay: Example 1 post-emergence field trial, CCHEC; conditions: B solo 30 g ai/ha, 14 DAT, growth stage 18-31
Method: as §1, §2, §3, §4, §5, §6

Brachiaria plantaginea = assay: Example 1 post-emergence field trial, BRAPL; conditions: B solo 30 g ai/ha, 14 DAT, growth stage 21-25
Method: as §1, §2, §3, §4, §5, §6

Portulaca oleracea = assay: Example 2 post-emergence field trial, POROL; conditions: B solo 30 g ai/ha, 21 DAT, growth stage 14-16
Method: as §1, §2, §3, §4, §5, §6

Amaranthus hybridus = assay: Example 1 post-emergence field trial, AMACH; conditions: B solo 30 g ai/ha, 14 DAT, growth stage 35
Method: as §1, §2, §3, §4, §5, §6

Digitaria horizontalis = assay: Example 1 post-emergence field trial, DIGHO; conditions: B solo 30 g ai/ha, 14 DAT, growth stage 18-31
Method: as §1, §2, §3, §4, §5, §6

Sorghum vulgare = assay: Example 2 post-emergence field trial, SORVU; conditions: B solo 30 g ai/ha, 14 DAT, growth stage 14-15
Method: as §1, §2, §3, §4, §5, §6

Euphorbia heterophylla = assay: Example 1 post-emergence field trial, EPHHL; conditions: B solo 30 g ai/ha, 14 DAT, growth stage 35
Method: as §1, §2, §3, §4, §5, §6

Eleusine indica [1] = assay: Example 1 post-emergence field trial, ELEIN; conditions: B solo 30 g ai/ha, 14 DAT, growth stage 18-31
Method: as §1, §2, §3, §4, §5, §6

Eleusine indica [2] = assay: Example 2 post-emergence field trial, ELEIN; conditions: B solo 30 g ai/ha, 21 DAT, growth stage 21-25
Method: as §1, §2, §3, §4, §5, §6

Compound	% herbicidal activity (Amaranthus viridis; A-1 solo 25 g ai/ha) [%]	% herbicidal activity (Ipomoea triloba; A-1 solo 25 g ai/ha) [%]	% herbicidal activity (Cenchrus echinatus) [%]	% herbicidal activity (Brachiaria plantaginea) [%]	% herbicidal activity (Portulaca oleracea) [%]	% herbicidal activity (Amaranthus hybridus) [%]	% herbicidal activity (Digitaria horizontalis) [%]	% herbicidal activity (Sorghum vulgare) [%]	% herbicidal activity (Amaranthus viridis; B solo 30 g ai/ha) [%]	% herbicidal activity (Euphorbia heterophylla) [%]	% herbicidal activity (Eleusine indica [1]) [%]	% herbicidal activity (Ipomoea triloba; B solo 30 g ai/ha) [%]	% herbicidal activity (Eleusine indica [2]) [%]
CCOC(=O)COc1ccccc1Oc1nc(-n2c(=O)cc(C(F)(F)F)n(C)c2=O)c(F)cc1Cl [A-1, ethyl 2-[2-[[3-chloro-5-fluoro-6-[3-methyl-2,6-dioxo-4-(trifluoromethyl)pyrimidin-1-yl]-2-pyridyl]oxy]phenoxy]acetate]	69	61	–	–	–	–	–	–	–	–	–	–	–
CCOc1nc(F)cc2nc(S(=O)(=O)Nc3c(Cl)cccc3Cl)nn12 [B, diclosulam]	–	–	20	3	58	22	0	32	65	16	0	17	0
